Key:
[1] = target: T1, mouse CD38 (Mus musculus, UniProt P56528); experiment: mouse recombinant CD38 enzyme assay (hydrolysis of NAD+); assay type: biochemical; conditions: read-out: mCD38 BioChem IC50
T1 sequence (P56528 1-304): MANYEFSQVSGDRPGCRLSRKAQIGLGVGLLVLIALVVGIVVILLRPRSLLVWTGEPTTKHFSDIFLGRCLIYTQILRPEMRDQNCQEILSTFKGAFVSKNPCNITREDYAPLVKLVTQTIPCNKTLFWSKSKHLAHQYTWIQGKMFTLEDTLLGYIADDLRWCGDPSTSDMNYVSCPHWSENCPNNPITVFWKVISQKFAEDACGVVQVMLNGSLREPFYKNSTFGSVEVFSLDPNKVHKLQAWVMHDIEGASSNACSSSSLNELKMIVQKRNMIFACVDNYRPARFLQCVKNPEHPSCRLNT
Procedure, shortened: (§1)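 Cell-free recombinant enzyme, NAD+ substrate, 60 min at RT. Stop/detect: ethanol/ADH plus semicarbazide and a CD38 inhibitor (15 min), then NaOH, then resazurin/diaphorase (15 min). Remaining NAD+ read as resorufin fluorescence, Ex/Em 540/590 nm. Inhibition fitted from dose responses.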

[2] = target: T2, endogenous CD38 in HL60 cells (Homo sapiens, UniProt P28907); experiment: cellular CD38 assay in HL60 cells (cellular NAD levels); assay type: cell-based; conditions: all-trans retinoic acid, 24 hours, read-out: hCD38 HL60 ATRA NAD Cell Diaphorase IC50
T2 construct: endogenous in cells; host or cells: HL60 (leukemic cells, treated with all-trans retinoic acid)
T2 sequence (P28907 1-300): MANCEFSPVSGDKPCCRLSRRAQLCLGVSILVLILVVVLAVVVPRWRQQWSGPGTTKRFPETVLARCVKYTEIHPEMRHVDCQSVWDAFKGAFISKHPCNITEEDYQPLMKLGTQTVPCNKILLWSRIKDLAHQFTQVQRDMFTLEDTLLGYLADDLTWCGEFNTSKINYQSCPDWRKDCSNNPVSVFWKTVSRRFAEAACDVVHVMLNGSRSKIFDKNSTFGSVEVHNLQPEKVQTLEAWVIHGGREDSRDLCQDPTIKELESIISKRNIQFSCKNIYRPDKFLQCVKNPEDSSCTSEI
Procedure, shortened: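 HL60 cells (20000/well) were treated with compound in DMSO for 24 h. Cellular NAD was then measured by an enzymatic cycling mix (alcohol dehydrogenase, diaphorase, 40 uM resazurin, 10 uM FMN, 3% ethanol, Triton X-100, pH 8.4).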

[3] = target: T3, human CD38 (Homo sapiens, UniProt P28907); experiment: human recombinant CD38 enzyme assay (hydrolysis of NAD+); assay type: biochemical; conditions: human recombinant CD38, 0.4 nM enzyme, 62.5 μM NAD+; read-out: hCD38 BioChem IC50
T3 sequence (P28907 1-300): T2 sequence (P28907 1-300)
Procedure, shortened: as §1

| SMILES | IC50 [1] [nM] | IC50 [2] [nM] | IC50 [3] [nM] |
| --- | --- | --- | --- |
| CC(C)(O)c1cc(C(=O)Nc2ccc(C(F)F)nc2)nc(-n2ccnc2)n1 [Compound 158, N-(6-(difluoromethyl)pyridin-3-yl)-6-(2-hydroxypropan-2-yl)-2-(1H-imidazol-1-yl)pyrimidine-4-carboxamide] | 185 | 3980 | 228 |
| Cn1cncc1-c1nc(C(=O)Nc2ccc(C(F)F)nc2)cc(C(C)(C)O)n1 [Compound 159, N-(6-(difluoromethyl)pyridin-3-yl)-6-(2-hydroxypropan-2-yl)-2-(1-methyl-1H-imidazol-5-yl)pyrimidine-4-carboxamide] | 5 | 1090 | 9 |
| C[C@H]1CC[C@H](NC(=O)c2cc(C(F)(F)F)nc(-n3ccnc3)n2)CC1 [Compound 164, 2-(1H-imidazol-1-yl)-N-((1r,4r)-4-methylcyclohexyl)-6-(trifluoromethyl)pyrimidine-4-carboxamide] | 11 | 4000 | 44 |
| COc1cc(C(=O)N[C@H]2CC[C@H](C)CC2)nc(-n2ccnc2)c1 [Compound 166, 6-(1H-imidazol-1-yl)-4-methoxy-N-((1r,4r)-4-methylcyclohexyl)picolinamide] | 2 | 2240 | 21 |
| CC(C)c1cc(C(=O)N[C@H]2CC[C@H](C(F)F)CC2)nc(-n2ccnc2)n1 [Compound 168, N-((1r,4r)-4-(difluoromethyl)cyclohexyl)-2-(1H-imidazol-1-yl)-6-isopropylpyrimidine-4-carboxamide] | 47 | 8650 | 313 |
| CC(C)c1cc(C(=O)Nc2ccc(C(F)F)nc2)nc(-n2ccnc2)n1 [Compound 169, N-(6-(difluoromethyl)pyridin-3-yl)-2-(1H-imidazol-1-yl)-6-isopropylpyrimidine-4-carboxamide] | 15 | 2250 | 22 |
| CO[C@H]1CC[C@H](NC(=O)c2cc(C(C)C)nc(-c3cncn3C)n2)CC1 [Compound 171, 6-isopropyl-N-((1r,4r)-4-methoxycyclohexyl)-2-(1-methyl-1H-imidazol-5-yl)pyrimidine-4-carboxamide] | 3 | 3730 | 15 |

Continued, values first:

| IC50 [1] [nM] | IC50 [2] [nM] | IC50 [3] [nM] | SMILES |
| --- | --- | --- | --- |
| 4 | 2450 | 26 | O=C(N[C@H]1CC[C@H](C(F)F)CC1)c1cc(C2CC2)nc(-n2ccnc2)n1 [Compound 161, 6-cyclopropyl-N-((1r,4r)-4-(difluoromethyl)cyclohexyl)-2-(1H-imidazol-1-yl)pyrimidine-4-carboxamide] |
| 1 | 718 | 3 | O=C(Nc1ccc(C(F)F)nc1)c1cc(C2CC2)nc(-n2ccnc2)n1 [Compound 162, 6-cyclopropyl-N-(6-(difluoromethyl)pyridin-3-yl)-2-(1H-imidazol-1-yl)pyrimidine-4-carboxamide] |
| 82 | 11700 | 375 | COc1cc(C(=O)Nc2ccc(C(F)F)nc2)nc(-c2cncs2)c1 [Compound 163, N-(6-(Difluoromethyl)pyridin-3-yl)-4-methoxy-6-(thiazol-5-yl)picolinamide] |
| 1 | 2980 | 19 | COCCO[C@H]1CC[C@H](NC(=O)c2cc(C(F)(F)F)nc(-c3cncn3C)n2)CC1 [Compound 165, N-((1r,4r)-4-(2-methoxyethoxy)cyclohexyl)-2-(1-methyl-1H-imidazol-5-yl)-6-(trifluoromethyl)pyrimidine-4-carboxamide] |
| 32 | 4860 | 47 | CC(C)c1cc(C(=O)Nc2ccc(C(F)(F)F)nc2)nc(-n2ccnc2)n1 [Compound 170, 2-(1H-imidazol-1-yl)-6-isopropyl-N-(6-(trifluoromethyl)pyridin-3-yl)pyrimidine-4-carboxamide] |
